Entries after “also recorded” stand apart in the source; their conditions may differ.
What was measured:
[1] = tested on: NF-κB2; assay: Non-canonical NF-κB2 activation and dependent cytokines, folic acid-induced renal injury in mice; format: in vivo; details: folic acid 300 mg/kg model; paricalcitol 25 µg/kg/day i.p.
Protocol: (§1) All animal procedures were performed according to the guidelines of animal research in the European Community and with prior approval by the Ethics Committee of the Health Research of the IIS-Fundacion Jiménez Díaz. For in vivo studies, mice received a daily intraperitoneal injection of the VDRA Paricalcitol starting 48 hours prior to induction of kidney damage.
At the time of sacrifice, animals were anesthetized with 5 mg/kg xylazine (Rompun, Bayer AG) and 35 mg/kg ketamine (Ketolar, Pfizer) and the kidneys perfused in situ with cold saline before removal. Then, kidney portions were fixed in formalin buffer for immunohistochemistry studies or immediately frozen in liquid nitrogen for gene and protein studies. […]
(§2) Paraffin-embedded kidney sections (3 µm) were stained using conventional methods. […] For each sample (processed by duplicate in a blinded manner), the average value was obtained from the analysis of 4 fields (20X objective) as density/mm2 or percentage stained area vs total analyzed area. Data are expressed as fold increase over control mice, as mean ± SEM of 8-10 animals per group. […]
For western blot, cell (25 µg/lane) and kidney (100-150 µg/lane) protein extracts were separated on 6%-12% polyacrylamide-SDS gels under reducing conditions. […] Autoradiographs were scanned using the Gel Doc™ EZ imager and analyzed with the Image Lab 3.0 software (BioRad). […]

[2] = tested on: CIAP1-TRAF3 complex; assay: TRAF3 immunoprecipitation (ubiquitin-Lys-48, CIAP1) in TWEAK-stimulated HK2 cells; format: cell-based, Human; details: TWEAK 100 ng/ml, paricalcitol 15 umol/L
Protocol: Human kidney proximal tubule epithelial cells (HK2 cell line, ATCC CRL-2190) were grown in RPMI 1640 with 10% fetal bovine serum (FBS), 1% glutamine, 100 U/ml penicillin, 100 µg/ml streptomycin, 5 µg/ml insulin-transferrin-selenite and 36 ng/ml hydrocortisone in 5% CO2 at 37° C. When cells reached 60 to 70% confluence, they were serum-depleted for 24 hours before the experiment.
Cells were stimulated with 100ng/ml recombinant human soluble TWEAK (Millipore) or p-200 µg/ml cresyl-sulfate (Raymond Vanholder and Griet Glorieux, University of Gent, Belgium). Concentrations of TWEAK and p-cresyl-sulfate were based on previously published dose-response experiments (Poveda et al. 2014; Sanz et al. 2008). […] DMSO, used as a solvent in some cases, had no effect on cell viability or on gene expression levels.
Cells growing in tissue culture dish plates, were lysed in 300-500 µl Triton-NP-40 lysis buffer [50 mmol/L Tris-HCl pH 8, 150 mmol/L NaCl, 1 mmol/L phenylmethylsulphonylfluoride, 1% NP-40/IGEPAL, and a phosphatase-inhibitor cocktail (Set II, Calbiochem)], scraped off the dish and incubated 1 hour to 4°C with shaking. Cell lysates were precleared by incubating with 10 µl protein A-agarose bead slurries (0.5 mL agarose/2 mL phosphate-buffered saline) for 30 min at 4°C, and then centrifuged three times for 5 minutes at 2500 rpm, to wash supernatants. […]

[3] = tested on: renal inflammation induced by folic acid; assay: Renal inflammatory cell infiltration, folic acid-induced renal injury in mice; format: in vivo; details: folic acid 300 mg/kg model; paricalcitol 25 µg/kg/day i.p.; anti-F4/80 and anti-CD3 immunohistochemistry
Protocol: as §1
(§3) At the time of sacrifice, animals were anesthetized with 5 mg/kg xylazine (Rompun, Bayer AG) and 35 mg/kg ketamine (Ketolar, Pfizer) and the kidneys perfused in situ with cold saline before removal. Then, kidney portions were fixed in formalin buffer for immunohistochemistry studies or immediately frozen in liquid nitrogen for gene and protein studies.
(§4) Folic acid nephropathy is a classical model of kidney tubulointerstitial injury and inflammation that has been reported in humans. Mice received a single intraperitoneal injection of folic acid (Sigma) 300 mg/kg in 0.3 mol/l sodium bicarbonate or vehicle, and were sacrificed 48 hours later. […]
as §2

[4] = tested on: TRAF3; assay: Renal TRAF3 (western blot), folic acid-induced renal injury in mice; format: in vivo; details: folic acid 300 mg/kg model; paricalcitol 25 µg/kg/day i.p.
Protocol: as §1, §3, §4
For western blot, cell (25 µg/lane) and kidney (100-150 µg/lane) protein extracts were separated on 6%-12% polyacrylamide-SDS gels under reducing conditions. […] Autoradiographs were scanned using the Gel Doc™ EZ imager and analyzed with the Image Lab 3.0 software (BioRad).

With `C[C@H](/C=C/[C@H](C)C(C)(C)O)[C@H]1CC[C@H]2/C(=C/C=C3C[C@@H](O)C[C@H](O)C3)CCC[C@]12C` [paricalcitol] the “NF-κB2 activation, as determined by RelB and p52 levels, nuclear translocation and RelB DNA-binding activity” value [1] was “decreased; also recorded: blocked”, the “gene and protein expression of NF-κB2-dependent cytokines, such as CCL21A, as well as other pro-inflammatory factors” value [1] was “blocked” and the “TRAF3 ubiquitination and CIAP1-TRAF3 complex formation” value [2] was “prevented”. The “renal inflammatory cell infiltration” value [3] was “prevented” and the “renal TRAF3 protein levels” value [4] was “restored renal TRAF3 protein levels to values of control mice”.

Source: patent publication EP3748362A1, “IN VITRO METHOD FOR DETECTING RENAL DISEASE” (Fundacion Instituto De Investigacion Sanitaria Fundacion …, priority 2019, dated 2020)
